# Measured values as given in ChEMBL document CHEMBL4043238, “Discovery of N-substituted 7-azaindoles as Pan-PIM kinase inhibitors - Lead series identification - Part II” (Bioorg Med Chem Lett, 2017).
# Legend:
# [1] = target: Serine/threonine-protein kinase pim-2 (Homo sapiens, UniProt Q9P1W9); test: Inhibition of PIM2 (unknown origin) assessed as reduction in BAD phosphorylation at Ser112 residues by TR-FRET assay
# [2] = target: Serine/threonine-protein kinase pim-1 (Homo sapiens, UniProt P11309); test: Inhibition of PIM1 (unknown origin) assessed as reduction in BAD phosphorylation at Ser112 residues by TR-FRET assay
# [3] = target: Serine/threonine-protein kinase pim-3 (Homo sapiens, UniProt Q86V86); test: Inhibition of PIM3 (unknown origin) assessed as reduction in BAD phosphorylation at Ser112 residues by TR-FRET assay
# Cytochrome P450 3A4 [4] = target: T1, Cytochrome P450 3A4 (Homo sapiens, UniProt P08684); test: Inhibition of CYP3A4 (unknown origin) using midazolam as substrate; assay type: ADME
# KG-1 = test: Antiproliferative activity against human KG1 cells; assay type: functional, cell-based
# Liver [5] = test: Stability in mouse liver microsomes; assay type: ADME, microsome
# [6] = Permeability from apical to basolateral side in human Caco2/TC7 cells at 5 uM; assay type: ADME, cell-based; conditions: Caco-2, read-out: permeability
# Liver [7] = test: Stability in human liver microsomes; assay type: ADME, microsome
# Liver [8] = test: Stability in rat liver microsomes; assay type: ADME, microsome
# [9] = target: Voltage-gated inwardly rectifying potassium channel KCNH2 (Homo sapiens, UniProt Q12809); test: Inhibition of human ERG by patch clamp assay
# Cytochrome P450 3A4 [10] = target: T1, Cytochrome P450 3A4; test: Inhibition of CYP3A4 (unknown origin) using testosterone as substrate; assay type: ADME
SMILES,IC50 [1],IC50 [2],IC50 [3],further results
NC(=O)c1cc(Cl)c2c(Cl)c(I)n(C3CCCC(N)C3)c2n1 (racemic),0.01 µM,0.001 µM,0.002 µM,
CCN(CC)CCn1c(I)c(Cl)c2c(Cl)cc(C(N)=O)nc21,7.41 µM,0.125 µM,0.48 µM,
COCC1CC1c1c(Cl)c2c(Cl)cc(C(N)=O)nc2n1C1CCCNC1 (stereo unspecified),0.298 µM,0.042 µM,,
NC(=O)c1cc(Cl)c2c(Cl)c(I)n(C3CCNC(=O)C3)c2n1 (racemic),0.66 µM,0.032 µM,0.064 µM,
Cn1c(I)c(Cl)c2c(Cl)cc(C(N)=O)nc21,0.64 µM,0.031 µM,0.069 µM,
CN1CCN(c2ccc(-c3cc4c(Cl)cc(C(N)=O)nc4n3C)cc2)CC1,> 30 µM,0.25 µM,,
NC(=O)c1cc(Cl)c2c(Cl)c(-c3ccccc3)n(C3CCCNC3)c2n1 (stereo unspecified),0.109 µM,0.013 µM,,
CC(C)=Cc1c(Cl)c2c(Cl)cc(C(N)=O)nc2n1C1CCCNC1 (stereo unspecified),0.024 µM,0.004 µM,,
NC(=O)c1cc(Cl)c2c(Cl)c(C(F)(F)F)n(C3CCCNC3)c2n1 (stereo unspecified),0.025 µM,0.067 µM,,
NC(=O)c1cc(Cl)c2c(Cl)c(I)n(CC3CCNC3)c2n1 (racemic),0.023 µM,0.001 µM,0.001 µM,
CSc1c(Cl)c2c(Cl)cc(C(N)=O)nc2n1C1CCCNC1 (stereo unspecified),0.015 µM,0.003 µM,,
NC(=O)c1cc(Cl)c2c(Cl)c(C3CC3)n([C@@H]3CCCNC3)c2n1,0.022 µM,0.004 µM,,IC50 (Cytochrome P450 3A4 [4]): > 30 µM; IC50 (KG-1): 0.822 µM; Stability (Liver [5]): 11%; Papp A→B at 5 µM [6]: 3.6 ×10⁻⁶ cm/s; Stability (Liver [7]): 3%; Stability (Liver [8]): 8%; IC50 [9]: 1.5 µM; IC50 (Cytochrome P450 3A4 [10]): > 30 µM
NC(=O)c1cc(Cl)c2c(Cl)c(I)n(CC3CCCN3)c2n1 (racemic),0.383 µM,0.012 µM,0.045 µM,
NC(=O)c1cc(Cl)c2c(Cl)c(C3CCCO3)n(C3CCCNC3)c2n1 (stereo unspecified),0.135 µM,0.031 µM,,
NC(=O)c1cc(Cl)c2c(Cl)c(I)n(C3CCC(N)CC3)c2n1 (stereo unspecified),0.006 µM,0.001 µM,0.003 µM,
NC(=O)c1cc(Cl)c2c(Cl)c(I)n(CCC3CCNCC3)c2n1,0.148 µM,0.003 µM,0.017 µM,
NC(=O)c1cc(Cl)c2c(Cl)c(I)n(C3CNC3)c2n1,4.22 µM,0.25 µM,0.35 µM,
